These compounds were tested against T1, Muscarinic acetylcholine receptor M4 (Rattus norvegicus, UniProt P08485) (assay: potentiation of rat muscarinic M4 receptor – cell-based, analogs, SAR follow-up (AID 1938)).
T1 sequence (P08485 whole entry): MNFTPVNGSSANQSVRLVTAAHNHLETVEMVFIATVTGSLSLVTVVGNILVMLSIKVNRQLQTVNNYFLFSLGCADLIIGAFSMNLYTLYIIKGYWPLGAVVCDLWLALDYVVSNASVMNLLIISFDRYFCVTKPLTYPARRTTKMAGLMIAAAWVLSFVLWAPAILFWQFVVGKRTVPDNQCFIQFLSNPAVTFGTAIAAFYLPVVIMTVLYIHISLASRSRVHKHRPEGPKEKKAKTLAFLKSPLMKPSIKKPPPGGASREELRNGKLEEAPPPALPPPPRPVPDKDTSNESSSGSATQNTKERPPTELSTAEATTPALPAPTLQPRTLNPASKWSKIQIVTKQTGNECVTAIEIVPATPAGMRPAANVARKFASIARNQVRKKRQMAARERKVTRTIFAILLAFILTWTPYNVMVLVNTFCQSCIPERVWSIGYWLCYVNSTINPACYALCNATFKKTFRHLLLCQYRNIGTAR
In the case of `Cc1cc(C)c2c(N)c(C(=O)NCc3ccc4c(c3)OCO4)sc2n1` [3-amino-4,6-dimethyl-N-piperonyl-thieno[2,3-b]pyridine-2-carboxamide], the EC50 is reported as 403 nM. Work on `COc1ccc(CNC(=O)c2sc3nc(OCc4ccncc4)cc(C)c3c2N)cc1` [3-amino-4-methyl-N-p-anisyl-6-(4-pyridylmethoxy)thieno[2,3-b]pyridine-2-carboxamide] yielded an EC50 of 1960 nM. In the case of `Cc1cc(OCc2ccncc2)nc2sc(C(=O)NCc3cccc(F)c3F)c(N)c12` [3-amino-N-(2,3-difluorobenzyl)-4-methyl-6-(4-pyridylmethoxy)thieno[2,3-b]pyridine-2-carboxamide], the EC50 is reported as 1670 nM.
